Results as given in patent US10683289B2, “Apoptosis signal-regulating kinase 1 inhibitors and methods of use thereof” (ENANTA PHARMACEUTICALS, INC., priority 2018, dated 2020).

Each compound was assayed against ASK1 (Homo sapiens (Human), UniProt Q99683) (assay: HTRF KinEASE Assay, inhibition of ASK1). Conditions: 5 nM ASK1 kinase, 1 uM STK3 peptide substrate, 100 uM ATP, TR-FRET; read-out: IC50 range.
Type: biochemical
Procedure: HTRF® KinEASE™ Assay ASK1 was purchased from Thermofisher (Catalogue # PV4011), ATP was purchased from Sigma (Catalogue # A7699), HTRF® KinEASE™ Assay System was obtained from Cisbio (Bedford, Mass.). ½ Area plate was purchased from Perkin Elmer (Catalogue # #6005560). HTRF® KinEASE™-STK is a generic method for measuring serine/threonine kinase activities using a time-resolved fluorescence resonance energy transfer (TR-FRET) immunoassay. […] The test compound, 1 uM STK3 peptide substrate, and 5 nM of ASK1 kinase are incubated with kinase reaction buffer containing 50 mM HEPES pH 7.5, 0.01% BRIJ-35, 10 mM MgCl2, and 1 mM EGTA for 30 minutes. 100 uM ATP is added to start kinase reaction and incubated for 3 hours. The STK3-antibody labeled with Eu^3+-Cryptate and 125 nM streptavidin-XL665 are mixed in a single addition with stop reagents provided by the Cisbio kit used to stop the kinase reaction. Fluorescence is detected using an Envision Multilabeled 2014 reader from PerkinElmer. The Fluorescence is measured at 615 nm (Cryptate) and 665 nm (XL665) and a ratio of 665 nm/615 nm is calculated for each well. The resulting TR-FRET is proportional to the phosphorylation level. […] IC50 was determined by XLfit 5.3. By using above method, the inhibition of ASK1 was evaluated for the compounds of Formula (I).

Sequence of ASK1 (Q99683 whole entry): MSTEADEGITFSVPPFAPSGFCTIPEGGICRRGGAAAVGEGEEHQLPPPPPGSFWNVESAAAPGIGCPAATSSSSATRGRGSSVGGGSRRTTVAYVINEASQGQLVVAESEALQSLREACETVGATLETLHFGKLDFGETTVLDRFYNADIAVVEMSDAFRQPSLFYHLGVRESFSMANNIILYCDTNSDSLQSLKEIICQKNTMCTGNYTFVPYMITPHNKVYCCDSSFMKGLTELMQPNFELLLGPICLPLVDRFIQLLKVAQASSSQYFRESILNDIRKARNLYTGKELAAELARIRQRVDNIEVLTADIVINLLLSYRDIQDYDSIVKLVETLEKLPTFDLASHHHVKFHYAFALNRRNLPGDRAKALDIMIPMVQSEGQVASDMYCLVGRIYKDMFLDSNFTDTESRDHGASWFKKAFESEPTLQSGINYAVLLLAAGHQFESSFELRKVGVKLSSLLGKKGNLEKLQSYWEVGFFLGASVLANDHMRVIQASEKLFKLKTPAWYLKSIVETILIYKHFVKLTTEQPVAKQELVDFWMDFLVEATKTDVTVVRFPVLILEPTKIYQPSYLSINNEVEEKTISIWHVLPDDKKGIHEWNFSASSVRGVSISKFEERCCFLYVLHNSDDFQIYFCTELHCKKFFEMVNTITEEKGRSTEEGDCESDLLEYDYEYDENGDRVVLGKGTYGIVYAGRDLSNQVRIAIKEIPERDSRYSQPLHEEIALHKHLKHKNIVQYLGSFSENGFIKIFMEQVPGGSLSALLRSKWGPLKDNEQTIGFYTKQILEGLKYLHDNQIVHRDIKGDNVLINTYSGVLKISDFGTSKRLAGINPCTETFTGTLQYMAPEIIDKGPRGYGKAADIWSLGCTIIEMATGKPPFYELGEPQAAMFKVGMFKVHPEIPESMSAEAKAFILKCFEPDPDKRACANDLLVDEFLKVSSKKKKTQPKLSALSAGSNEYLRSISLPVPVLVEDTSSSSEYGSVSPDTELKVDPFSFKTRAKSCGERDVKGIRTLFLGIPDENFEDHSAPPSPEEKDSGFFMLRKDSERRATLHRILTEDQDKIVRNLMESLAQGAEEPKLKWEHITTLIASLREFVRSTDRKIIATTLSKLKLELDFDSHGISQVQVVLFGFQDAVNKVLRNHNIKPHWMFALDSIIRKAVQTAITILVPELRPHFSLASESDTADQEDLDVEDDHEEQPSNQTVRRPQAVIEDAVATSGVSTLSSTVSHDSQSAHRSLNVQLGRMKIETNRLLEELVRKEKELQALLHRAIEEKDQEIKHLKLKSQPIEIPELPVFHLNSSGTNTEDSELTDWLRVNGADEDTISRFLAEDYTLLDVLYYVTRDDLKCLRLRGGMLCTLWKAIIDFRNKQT

| SMILES | IC50 [nM] |
| --- | --- |
| CC(C)n1nnnc1-c1cccc(NC(=O)c2cc3c(cc2F)CN(C(C)(C)C)S3(=O)=O)n1 [Example 1, 2-(tert-butyl)-5-fluoro-N-(6-(1-isopropyl-1H-tetrazol-5-yl)pyridin-2-yl)-2,3-dihydrobenzo[d]isothiazole-6-carboxamide 1,1-dioxide] | 100 to 1000 |
| C[C@H](CO)n1nnnc1-c1cccc(NC(=O)c2cc3c(cc2F)CN(C(C)(C)C)S3(=O)=O)n1 [Example 2, (R)-2-(tert-butyl)-5-fluoro-N-(6-(1-(1-hydroxypropan-2-yl)-1H-tetrazol-5-yl)pyridin-2-yl)-2,3-dihydrobenzo[d]isothiazole-6-carboxamide 1,1-dioxide] | 10 to 100 |
| CC(C)n1nnnc1-c1cccc(NC(=O)c2cc3c(cc2F)CCN(C(C)(C)C)S3(=O)=O)n1 [Example 4, 2-(tert-butyl)-6-fluoro-N-(6-(1-isopropyl-1H-tetrazol-5-yl)pyridin-2-yl)-3,4-dihydro-2H-benzo[e][1,2]thiazine-7-carboxamide 1,1-dioxide] | 10 to 100 |
| COc1cc2c(cc1C(=O)Nc1cccc(-c3nnnn3C(C)C)n1)S(=O)(=O)N(C(C)(C)C)C2 [Example 6, 2-(tert-butyl)-N-(6-(1-isopropyl-1H-tetrazol-5-yl)pyridin-2-yl)-5-methoxy-2,3-dihydrobenzo[d]isothiazole-6-carboxamide 1,1-dioxide] | > 1000 |
| CC(C)N1Cc2cc(F)c(C(=O)Nc3cccc(-c4nncn4C(C)C)n3)cc2S1(=O)=O [Example 7, 5-fluoro-2-isopropyl-N-(6-(4-isopropyl-4H-1,2,4-triazol-3-yl)pyridin-2-yl)-2,3-dihydrobenzo[d]isothiazole-6-carboxamide 1,1-dioxide] | 10 to 100 |
| COc1cc2c(cc1C(=O)Nc1cccc(-c3nncn3C(C)C)n1)S(=O)(=O)N(C(C)C)C2 [Example 8, 2-isopropyl-N-(6-(4-isopropyl-4H-1,2,4-triazol-3-yl)pyridin-2-yl)-5-methoxy-2,3-dihydrobenzo[d]isothiazole-6-carboxamide 1,1-dioxide] | < 1.5 |
| CC(C)N1Cc2cc(F)c(C(=O)Nc3cccc(-c4nnnn4[C@H](C)CO)n3)cc2S1(=O)=O [Example 9, (R)-5-fluoro-N-(6-(1-(1-hydroxypropan-2-yl)-1H-tetrazol-5-yl)pyridin-2-yl)-2-isopropyl-2,3-dihydrobenzo[d]isothiazole-6-carboxamide 1,1-dioxide] | 10 to 100 |
| COc1cc2c(cc1C(=O)Nc1cccc(-c3nnnn3[C@H](C)CO)n1)S(=O)(=O)N(C(C)C)C2 [Example 10, (R)—N-(6-(1-(1-hydroxypropan-2-yl)-1H-tetrazol-5-yl)pyridin-2-yl)-2-isopropyl-5-methoxy-2,3-dihydrobenzo[d]isothiazole-6-carboxamide 1,1-dioxide] | < 1.5 |
| CC(C)N1Cc2cc(OCC(F)(F)F)c(C(=O)Nc3cccc(-c4nnnn4[C@H](C)CO)n3)cc2S1(=O)=O [Example 12, (R)—N-(6-(1-(1-hydroxypropan-2-yl)-1H-tetrazol-5-yl)pyridin-2-yl)-2-isopropyl-5-(2,2,2-trifluoroethoxy)-2,3-dihydrobenzo[d]isothiazole-6-carboxamide 1,1-dioxide] | 100 to 1000 |
| CC(C)Oc1cc2c(cc1C(=O)Nc1cccc(-c3nnnn3[C@H](C)CO)n1)S(=O)(=O)N(C(C)C)C2 [Example 13, (R)—N-(6-(1-(1-hydroxypropan-2-yl)-1H-tetrazol-5-yl)pyridin-2-yl)-5-isopropoxy-2-isopropyl-2,3-dihydrobenzo[d]isothiazole-6-carboxamide 1,1-dioxide] | 10 to 100 |
| CC(C)N1Cc2cc(N(C)C)c(C(=O)Nc3cccc(-c4nnnn4[C@H](C)CO)n3)cc2S1(=O)=O [Example 14, (R)-5-(dimethylamino)-N-(6-(1-(1-hydroxypropan-2-yl)-1H-tetrazol-5-yl)pyridin-2-yl)-2-isopropyl-2,3-dihydrobenzo[d]isothiazole-6-carboxamide 1,1-dioxide] | 10 to 100 |
| CC(C)n1cnnc1-c1cccc(NC(=O)c2cc3c(cc2F)CN(C)S3(=O)=O)n1 [Example 15, 5-fluoro-N-(6-(4-isopropyl-4H-1,2,4-triazol-3-yl)pyridin-2-yl)-2-methyl-2,3-dihydrobenzo[d]isothiazole-6-carboxamide 1,1-dioxide] | 10 to 100 |
| COc1cc2c(cc1C(=O)Nc1cccc(-c3nncn3C(C)C)n1)S(=O)(=O)N(C)C2 [Example 16, N-(6-(4-isopropyl-4H-1,2,4-triazol-3-yl)pyridin-2-yl)-5-methoxy-2-methyl-2,3-dihydrobenzo[d]isothiazole-6-carboxamide 1,1-dioxide] | < 1.5 |
| C[C@H](CO)n1nnnc1-c1cccc(NC(=O)c2cc3c(cc2F)CN(C)S3(=O)=O)n1 [Example 17, (R)-5-fluoro-N-(6-(1-(1-hydroxypropan-2-yl)-1H-tetrazol-5-yl)pyridin-2-yl)-2-methyl-2,3-dihydrobenzo[d]isothiazole-6-carboxamide 1,1-dioxide] | 10 to 100 |
| COc1cc2c(cc1C(=O)Nc1cccc(-c3nnnn3[C@H](C)CO)n1)S(=O)(=O)N(C)C2 [Example 18, (R)—N-(6-(1-(1-hydroxypropan-2-yl)-1H-tetrazol-5-yl)pyridin-2-yl)-5-methoxy-2-methyl-2,3-dihydrobenzo[d]isothiazole-6-carboxamide 1,1-dioxide] | < 1.5 |
| COCCN1Cc2cc(F)c(C(=O)Nc3cccc(-c4nncn4C(C)C)n3)cc2S1(=O)=O [Example 19, 5-fluoro-N-(6-(4-isopropyl-4H-1,2,4-triazol-3-yl)pyridin-2-yl)-2-(2-methoxyethyl)-2,3-dihydrobenzo[d]isothiazole-6-carboxamide 1,1-dioxide] | 10 to 100 |
| COCCN1Cc2cc(OC)c(C(=O)Nc3cccc(-c4nncn4C(C)C)n3)cc2S1(=O)=O [Example 20, N-(6-(4-isopropyl-4H-1,2,4-triazol-3-yl)pyridin-2-yl)-5-methoxy-2-(2-methoxyethyl)-2,3-dihydrobenzo[d]isothiazole-6-carboxamide 1,1-dioxide] | 10 to 100 |
| COCCN1Cc2cc(F)c(C(=O)Nc3cccc(-c4nnnn4[C@H](C)CO)n3)cc2S1(=O)=O [Example 21, (R)-5-fluoro-N-(6-(1-(1-hydroxypropan-2-yl)-1H-tetrazol-5-yl)pyridin-2-yl)-2-(2-methoxyethyl)-2,3-dihydrobenzo[d]isothiazole-6-carboxamide 1,1-dioxide] | < 1.5 |
| COCCN1Cc2cc(OC)c(C(=O)Nc3cccc(-c4nnnn4[C@H](C)CO)n3)cc2S1(=O)=O [Example 22, (R)—N-(6-(1-(1-hydroxypropan-2-yl)-1H-tetrazol-5-yl)pyridin-2-yl)-5-methoxy-2-(2-methoxyethyl)-2,3-dihydrobenzo[d]isothiazole-6-carboxamide 1,1-dioxide] | < 1.5 |
